Source: patent US11673876B2, “Substituted aminobenzyl heteroaryl compounds as EGFR and/or PI3K inhibitors” (Mekanistic Therapeutics LLC, priority 2020, dated 2023)
One block for each compound: values may come before it.

How the values were obtained:
[1] = target: PI3Ka (Homo sapiens (Human), UniProt P42336); test: Z'-LYTE / Adapta kinase assay, PI3Ka; type: biochemical; details: for inhibition at 0.1 µM: read-out: PI3Ka % Inh. @ 100 nM
In short: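 Z'-LYTE FRET-peptide phosphorylation read as coumarin/fluorescein emission ratio (400 nm excitation); Adapta immunoassay detects ADP formation. 60-min kinase reaction, 60-min development, room temperature.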

[2] = tested on: human CAL-27 (squamous head and neck cancer); test: CAL-27 xenograft study in NCR nude mice; type: in vivo; details: time to 500 mg vs vehicle
Experimental: (§1) Xenograft Studies. Female NCR nude mice (CrTac:NCr-Foxn1nu from Taconic), 6-7 weeks old, were implanted subcutaneously with 5×10^6 cells in a 1:1 serum-free media/Matrigel® mixture into the region of the right axilla. Mice were randomized into treatment groups and treatments initiated when tumors reached 100 to 200 mg. Compound 2R was administered daily by oral gavage as a fine suspension in 1:2 propylene (glycol in 1% Tween80/Na3PO4 based upon individual animal body weight (0.2 mL/20 g). Subcutaneous tumor volume and body weights were measured two to three times a week. Tumor volumes were calculated by measuring two perpendicular diameters with calipers and using the formula: tumor volume=(length×width2)/2. Individual mice were dosed daily until their tumor burden reached 500 mg for the CAL-27 and HCC-70 models or 1000 mg for the CAL-33 model, to allow for calculation of increase in progression-free survival. Percent increase in survival was calculated by comparing the median time to reach either 500 mg or 1000 mg in the treated group versus the vehicle control group. A complete response (CR) is defined as a tumor below the limits of palpation (<40 mg).
(§2) FIGS. 1-3 show the performance of Compound 2R in controlling tumor size. […] Tumor growth curves as well as survival and objective response data are summarized in the accompanying FIGS. 1-3 and the table below.

[3] = Pharmacokinetics in mice, single IV or oral administration; type: in vivo, mouse; details: for C0 / half-life / Cmax / Tmax: blood; for C0 / half-life / Cmax / Tmax / Cl_obs / F: mouse
Experimental: (§3) The pharmacokinetics of Compound 2R (HCl salt) and Comparative Compound 2 were studied following a single intravenous and/or oral administration to mice, dogs, and monkeys (n=3 for all species). The IV and PO solution formulations for Comparative Compound 2 contained 20% (w/v) propylene glycol, 75% (w/v) 50 mM trisodium phosphate (pH 12), and 5% (w/v) Kolliphor EL. The formulation for Compound 2R contained 1:2 propylene glycol: 1% Tween 80/Na3PO4 (50 mM). Subsequent pharmacokinetic data analysis was performed using non-compartmental analysis modules in Phoenix/WINNONLIN 6.3 (Pharsight, St. Louis, Mo., USA), and the linear trapezoidal rule was used for AUC calculation. Terminal elimination half-life (t½) was calculated based on data points (≥3) in the terminal phase; Tmax=Time of maximum observed concentration; AUClast/D=Area under the concentration-time curve from time zero to the last observed concentration/divided by dose; Cl_obs=Total body clearance; Cmax=maximum observed concentration; F=bioavailability of oral dose form. Blood samples were assayed for compounds using protein precipitation with acetonitrile followed by HPLC/MS/MS analysis. Blood concentration-time data were analyzed by non-compartmental methods.

[4] = Pharmacokinetics in dogs, single IV or oral administration; type: in vivo, dog; details: for C0 / half-life / Cmax / Tmax: blood; for C0 / half-life / Cmax / Tmax / Cl_obs / F: dog
Experimental: as §3

[5] = Tolerability in the xenograft studies; type: in vivo; details: highest dose tested 100 mg/kg, daily dosing over >50 days
Experimental: as §1, §2

[6] = Pharmacokinetics in monkeys, single IV or oral administration; type: in vivo, monkey; details: for C0 / half-life / Cmax / Tmax: blood; for C0 / half-life / Cmax / Tmax / Cl_obs / F: monkey
Experimental: as §3

Sequence of PI3Ka (P42336 whole entry): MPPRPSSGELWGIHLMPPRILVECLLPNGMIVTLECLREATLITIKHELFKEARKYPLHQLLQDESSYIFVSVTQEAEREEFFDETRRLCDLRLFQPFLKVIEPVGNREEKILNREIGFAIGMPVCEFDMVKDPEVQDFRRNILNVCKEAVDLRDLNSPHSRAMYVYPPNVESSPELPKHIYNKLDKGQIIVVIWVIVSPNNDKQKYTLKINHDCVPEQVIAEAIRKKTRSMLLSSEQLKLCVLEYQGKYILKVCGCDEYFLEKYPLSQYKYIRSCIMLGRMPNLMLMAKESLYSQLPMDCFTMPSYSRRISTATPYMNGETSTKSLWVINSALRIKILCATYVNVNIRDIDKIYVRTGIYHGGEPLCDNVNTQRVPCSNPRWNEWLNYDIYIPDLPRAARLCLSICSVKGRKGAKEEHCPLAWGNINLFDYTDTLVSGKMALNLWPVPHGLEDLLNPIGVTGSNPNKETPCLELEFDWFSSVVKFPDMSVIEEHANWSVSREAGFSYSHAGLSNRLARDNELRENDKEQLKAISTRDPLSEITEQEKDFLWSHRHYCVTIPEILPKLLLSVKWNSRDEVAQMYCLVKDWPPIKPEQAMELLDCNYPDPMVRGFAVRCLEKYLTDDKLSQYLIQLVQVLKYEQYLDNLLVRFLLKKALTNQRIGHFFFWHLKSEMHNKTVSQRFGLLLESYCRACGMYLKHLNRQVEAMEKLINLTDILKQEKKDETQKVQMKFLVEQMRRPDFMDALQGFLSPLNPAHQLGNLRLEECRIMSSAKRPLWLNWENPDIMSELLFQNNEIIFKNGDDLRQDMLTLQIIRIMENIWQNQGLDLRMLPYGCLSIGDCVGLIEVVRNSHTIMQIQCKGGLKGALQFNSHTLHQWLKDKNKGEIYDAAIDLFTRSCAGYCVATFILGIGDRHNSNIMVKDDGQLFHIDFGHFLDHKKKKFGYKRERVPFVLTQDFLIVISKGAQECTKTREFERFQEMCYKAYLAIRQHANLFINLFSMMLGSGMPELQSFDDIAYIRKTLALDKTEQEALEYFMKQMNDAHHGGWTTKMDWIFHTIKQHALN
Sequence of PI3Ka (P27986 whole entry partner): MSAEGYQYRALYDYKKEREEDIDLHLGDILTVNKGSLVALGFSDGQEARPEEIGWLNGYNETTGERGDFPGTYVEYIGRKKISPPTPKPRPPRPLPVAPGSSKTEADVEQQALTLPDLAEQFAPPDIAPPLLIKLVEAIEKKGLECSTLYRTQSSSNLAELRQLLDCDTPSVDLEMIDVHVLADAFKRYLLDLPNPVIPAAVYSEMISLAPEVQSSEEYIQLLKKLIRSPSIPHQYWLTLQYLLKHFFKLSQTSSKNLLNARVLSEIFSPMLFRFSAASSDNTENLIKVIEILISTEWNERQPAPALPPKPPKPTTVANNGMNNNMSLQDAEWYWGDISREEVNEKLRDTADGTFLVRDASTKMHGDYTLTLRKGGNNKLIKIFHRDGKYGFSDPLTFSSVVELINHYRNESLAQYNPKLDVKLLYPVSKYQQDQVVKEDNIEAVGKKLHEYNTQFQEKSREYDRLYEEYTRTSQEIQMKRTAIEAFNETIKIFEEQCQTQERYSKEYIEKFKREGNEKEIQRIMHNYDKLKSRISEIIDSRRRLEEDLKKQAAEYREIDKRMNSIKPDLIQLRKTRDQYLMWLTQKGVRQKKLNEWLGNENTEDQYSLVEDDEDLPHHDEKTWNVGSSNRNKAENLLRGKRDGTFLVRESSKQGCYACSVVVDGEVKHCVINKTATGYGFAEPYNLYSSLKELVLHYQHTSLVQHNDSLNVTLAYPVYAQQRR

IC50 [1]: 2 to 20 nM | inhibition at 0.1 µM [1]: > 90%
SMILES: C[C@@H](Nc1ncnc2ccc(-c3cnc(Cl)c(NS(C)(=O)=O)c3)cc12)c1ccc(F)cc1 [Compound 111R, N-(2-chloro-5-(4-((1R-(4-fluorophenyl)ethyl)amino)quinazolin-6-yl)pyridin-3-yl)methanesulfonamide]

PI3Ka IC50 (nM) [1]: ++++ (value is 2 nM or less) | inhibition at 0.1 µM [1]: > 90%
SMILES: C[C@H](Nc1ncnc2ccc(-c3cnc(Cl)c(NS(C)(=O)=O)c3)cc12)c1ccccc1 [Compound 2S, N-(2-chloro-5-(4-((1S-phenylethyl)amino)quinazolin-6-yl)pyridin-3-yl)methanesulfonamide]

PI3Ka IC50 (nM) [1]: + (value is greater than 200 nM) | inhibition at 0.1 µM [1]: 10 to 80%
SMILES: C[C@@H](Nc1c(C#N)cnc2ccc(-c3cnc(N)nc3)cc12)c1ccccc1 [Compound 53R, (R)-6-(2-aminopyrimidin-5-yl)-4-((1-phenylethyl)amino)quinoline-3-carbonitrile]

Continued, compound first:

SMILES: CS(=O)(=O)Nc1cncc(-c2ccc3ncnc(NCc4ccccc4)c3c2)c1 [Comparative Compound 3, reference compound]
PI3Ka IC50 (nM) [1]: ++ (value is greater than 20 nM and less than or equal to 200 nM) | PI3Ka % Inh. @ 100 nM ([1]; 100 nM): *** (value is greater than 80% and less than or equal to 90%)

SMILES: CC(Nc1c(C#N)cnc2ccc(-c3cnc4[nH]ncc4c3)cc12)c1ccccc1 (stereo not drawn) [Compound 54, 4-(1-phenylethylamino)-6-(1H-pyrazolo[3,4-b]pyridin-5-yl)quinoline-3-carbonitrile]
PI3Ka IC50 (nM) [1]: + (value is greater than 200 nM) | inhibition at 0.1 µM [1]: 10 to 80%

SMILES: CC(Nc1c(C#N)cnc2ccc(-c3cnc(N)nc3)cc12)c1ccccc1 (stereo not drawn) [Compound 53, 6-(2-aminopyrimidin-5-yl)-4-(1-phenylethylamino) quinoline-3-carbonitrile]
PI3Ka IC50 (nM) [1]: + (value is greater than 200 nM) | inhibition at 0.1 µM [1]: 10 to 80%

SMILES: C[C@@H](Nc1ncnc2ccc(-c3cnc(Cl)c(NS(C)(=O)=O)c3)cc12)c1ccccc1 [Compound 2R, N-(2-chloro-5-(4-((1R-phenylethyl)amino)quinazolin-6-yl)pyridin-3-yl)methanesulfonamide]
Median Increase In Survival ([2]; CAL-27, 10 mg/kg daily oral gavage): 328% | Median Increase In Survival ([2]; CAL-27, 100 mg/kg daily oral gavage): >700% | IC50 [1]: 2 to 20 nM | inhibition at 0.1 µM [1]: > 90% | C0 ([3]; 5 mg/kg, IV, 5 mpk): 25700 ng/mL | half-life ([3]; 5 mg/kg, IV, 5 mpk): 2.5 h | Cmax ([3]; 25 mg/kg, oral, 25 mpk): 21700 ng/mL | Tmax ([3]; 25 mg/kg, oral, 25 mpk): 4.17 h | half-life ([3]; 25 mg/kg, oral, 25 mpk): 4.9 h | increase in exposure (AUClast/D) compared to Comparative Compound 2 ([3]; mice, IV): ~3 fold | enhanced exposure relative to Comparative Compound 2 ([3]; mice, oral): 3 fold | Cl_obs ([3]; IV, 5 mpk): 1.2 mL/min/kg | F ([3]; oral, 25 mpk): 83% | C0 ([4]; 1 mg/kg, IV, 1 mpk): 7150 ng/mL | half-life ([4]; 1 mg/kg, IV, 1 mpk): 10.4 h | Cmax ([4]; 5 mg/kg, oral, 5 mpk): 7090 ng/mL | Tmax ([4]; 5 mg/kg, oral, 5 mpk): 2 h | half-life ([4]; 5 mg/kg, oral, 5 mpk): 12 h | Cl_obs ([4]; IV, 1 mpk): 0.52 mL/min/kg | F ([4]; oral, 5 mpk): 48% | increase in exposure (AUClast/D) compared to Comparative Compound 2 ([4]; dogs, dosed intravenously): ~15 fold | improvement in exposure (AUClast/D) relative to Comparative Compound 2 ([4]; dogs, oral): > 28 fold | tolerability (body weight loss, clinical signs) [5]: well tolerated at the highest dose tested (100 mg/kg) with no signs of body weight loss or other clinical signs | C0 ([6]; 1 mg/kg, IV, 1 mpk): 4170 ng/mL | half-life ([6]; 1 mg/kg, IV, 1 mpk): 2.3 h | Cmax ([6]; 10 mg/kg, oral, 10 mpk): 4710 ng/mL | Tmax ([6]; 10 mg/kg, oral, 10 mpk): 2 h | half-life ([6]; 10 mg/kg, oral, 10 mpk): 4 h | Cl_obs ([6]; IV, 1 mpk): 4.81 mL/min/kg | F ([6]; oral, 10 mpk): 59% | increase in exposure (AUClast/D) compared to Comparative Compound 2 ([6]; monkeys, IV): ~3 fold | improvement in exposure (AUClast/D) relative to Comparative Compound 2 ([6]; monkeys, oral): > 74 fold

SMILES: CS(=O)(=O)Nc1cc(-c2ccc3ncnc(NCc4ccccc4)c3c2)cnc1Cl [Comparative Compound 1, N-[5-[4-(benzylamino)quinazolin-6-yl]-2-chloro-3-pyridyl]methanesulfonamide, reference compound]
PI3Ka IC50 (nM) [1]: ++++ (value is 2 nM or less) | inhibition at 0.1 µM [1]: > 90%

SMILES: CS(=O)(=O)Nc1cc(-c2ccc3ncnc(Nc4ccc(F)c(Cl)c4)c3c2)cnc1Cl [Comparative Compound 2, reference compound]
PI3Ka IC50 (nM) [1]: ++++ (value is 2 nM or less) | inhibition at 0.1 µM [1]: > 90% | C0 ([3]; 10 mg/kg, IV, 10 mpk): 25600 ng/mL | half-life ([3]; 10 mg/kg, IV, 10 mpk): 1.2 h | Cmax ([3]; 10 mg/kg, oral, 10 mpk): 8270 ng/mL | Tmax ([3]; 10 mg/kg, oral, 10 mpk): 1 h | half-life ([3]; 10 mg/kg, oral, 10 mpk): 1.4 h | Cl_obs ([3]; IV, 10 mpk): 3.3 mL/min/kg | F ([3]; oral, 10 mpk): 63% | C0 ([4]; 1 mg/kg, IV, 1 mpk): 5490 ng/mL | half-life ([4]; 1 mg/kg, IV, 1 mpk): 0.7 h | Cmax ([4]; 5 mg/kg, oral, 5 mpk): 716 ng/mL | Tmax ([4]; 5 mg/kg, oral, 5 mpk): 2 h | half-life ([4]; 5 mg/kg, oral, 5 mpk): 0.8 h | Cl_obs ([4]; IV, 1 mpk): 10.50 mL/min/kg | F ([4]; oral, 5 mpk): 25% | C0 ([6]; 1 mg/kg, IV, 1 mpk): 5910 ng/mL | half-life ([6]; 1 mg/kg, IV, 1 mpk): 1.1 h | Cmax ([6]; 10 mg/kg, oral, 10 mpk): 110 ng/mL | Tmax ([6]; 10 mg/kg, oral, 10 mpk): 1 h | half-life ([6]; 10 mg/kg, oral, 10 mpk): 2 h | Cl_obs ([6]; IV, 1 mpk): 15.71 mL/min/kg | F ([6]; oral, 10 mpk): 3%
